Test results taken from PubChem BioAssay (NCI).
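In this assay, cells in 96-well plates receive the compound at five concentrations for 48 hours. Endpoints are linearly interpolated between the surrounding concentrations. TGI marks complete inhibition of growth.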

Key:
Assay in all cases: growth of human tumour cells (NCI), 48 h
786-0 renal = tested on: 786-0 renal
A498 renal = tested on: A498 renal
A549 NSCLC = tested on: A549 NSCLC
ACHN renal = tested on: ACHN renal
BT-549 breast = tested on: BT-549 breast
CAKI-1 renal = tested on: CAKI-1 renal
CCRF-CEM leukemia = tested on: CCRF-CEM leukemia
COLO 205 colon = tested on: COLO 205 colon
DU-145 prostate = tested on: DU-145 prostate
EKVX NSCLC = tested on: EKVX NSCLC
HCC-2998 colon = tested on: HCC-2998 colon
HCT-116 colon = tested on: HCT-116 colon
HCT-15 colon = tested on: HCT-15 colon
HOP-62 NSCLC = tested on: HOP-62 NSCLC
HOP-92 NSCLC = tested on: HOP-92 NSCLC
HS 578T breast = tested on: HS 578T breast
HT29 colon = tested on: HT29 colon
IGROV1 ovarian = tested on: IGROV1 ovarian
KM12 colon = tested on: KM12 colon
LOX IMVI melanoma = tested on: LOX IMVI melanoma
M14 melanoma = tested on: M14 melanoma
MALME-3M melanoma = tested on: MALME-3M melanoma
MCF7 breast = tested on: MCF7 breast
MDA-MB-231 breast = tested on: MDA-MB-231 breast
MDA-MB-435 = tested on: MDA-MB-435
MDA-N = tested on: MDA-N
MOLT-4 leukemia = tested on: MOLT-4 leukemia
NCI-H226 lung = tested on: NCI-H226 lung
NCI-H460 lung = tested on: NCI-H460 lung
NCI-H522 lung = tested on: NCI-H522 lung
NCI/ADR-RES ovarian = tested on: NCI/ADR-RES ovarian
OVCAR-3 ovarian = tested on: OVCAR-3 ovarian
OVCAR-4 ovarian = tested on: OVCAR-4 ovarian
OVCAR-5 ovarian = tested on: OVCAR-5 ovarian
OVCAR-8 ovarian = tested on: OVCAR-8 ovarian
PC-3 prostate = tested on: PC-3 prostate
RPMI-8226 leukemia = tested on: RPMI-8226 leukemia
RXF 393 renal = tested on: RXF 393 renal
SF-268 CNS = tested on: SF-268 CNS
SF-295 CNS = tested on: SF-295 CNS
SF-539 CNS = tested on: SF-539 CNS
SK-MEL-28 melanoma = tested on: SK-MEL-28 melanoma
SK-OV-3 ovarian = tested on: SK-OV-3 ovarian
SN12C renal = tested on: SN12C renal
SNB-19 CNS = tested on: SNB-19 CNS
SR leukemia = tested on: SR leukemia
SW-620 colon = tested on: SW-620 colon
T-47D breast = tested on: T-47D breast
TK-10 renal = tested on: TK-10 renal
U251 CNS = tested on: U251 CNS
UACC-257 melanoma = tested on: UACC-257 melanoma
UACC-62 melanoma = tested on: UACC-62 melanoma
UO-31 renal = tested on: UO-31 renal
K-562 leukemia = tested on: K-562 leukemia
NCI-H23 lung = tested on: NCI-H23 lung
SK-MEL-2 melanoma = tested on: SK-MEL-2 melanoma
SK-MEL-5 melanoma = tested on: SK-MEL-5 melanoma
SNB-75 CNS = tested on: SNB-75 CNS

Measured: TGI

COc1ccc2[nH]c(S(=O)(=O)N3CC(CCl)c4ccc(N)cc43)cc2c1 (stereo unspecified)
> 31.8 µM: HCT-116 colon
16.5 µM: HS 578T breast | SN12C renal
4.69 µM: HT29 colon
52.6 µM: EKVX NSCLC
19.9 µM: CAKI-1 renal
> 70.5 µM: U251 CNS
53.3 µM: COLO 205 colon
35.3 µM: OVCAR-4 ovarian
63.4 µM: HOP-92 NSCLC
25.4 µM: UACC-62 melanoma
19.4 µM: OVCAR-8 ovarian
14.1 µM: SF-268 CNS
27.6 µM: BT-549 breast | MALME-3M melanoma
> 37.4 µM: DU-145 prostate
< 0.0189 µM: MDA-N
> 100 µM: MCF7 breast | SNB-19 CNS | SW-620 colon | T-47D breast
14.9 µM: HCC-2998 colon
3.35 µM: MDA-MB-435
68.2 µM: SK-MEL-28 melanoma
16.9 µM: SR leukemia
10.1 µM: NCI-H522 lung
> 82.3 µM: TK-10 renal
67.5 µM: UACC-257 melanoma
28.6 µM: HOP-62 NSCLC
38.3 µM: SK-OV-3 ovarian
> 50.7 µM: CCRF-CEM leukemia
18.4 µM: MOLT-4 leukemia
3.86 µM: KM12 colon
18.6 µM: NCI/ADR-RES ovarian
4 µM: UO-31 renal
36 µM: A549 NSCLC
14.2 µM: NCI-H460 lung
14.7 µM: 786-0 renal
25.8 µM: OVCAR-3 ovarian
26.4 µM: HCT-15 colon
20.1 µM: NCI-H226 lung
26.9 µM: MDA-MB-231 breast
17.6 µM: A498 renal
22 µM: RPMI-8226 leukemia
2.27 µM: SF-295 CNS
35.2 µM: OVCAR-5 ovarian
17.7 µM: LOX IMVI melanoma
29.4 µM: RXF 393 renal
16.6 µM: M14 melanoma | PC-3 prostate
49.5 µM: ACHN renal
12.7 µM: SF-539 CNS
24.2 µM: IGROV1 ovarian

CN(Cc1cnc2c(n1)C(N)=NN(N)N2)c1ccc(C(=O)NC(CCP(=O)(O)O)C(=O)O)cc1 (stereo unspecified)
> 54 µM: NCI-H226 lung
> 55.8 µM: NCI/ADR-RES ovarian
> 38.8 µM: HT29 colon
> 58.3 µM: OVCAR-8 ovarian
71.8 µM: RXF 393 renal
> 89.6 µM: BT-549 breast
> 100 µM: A498 renal | A549 NSCLC | ACHN renal | CAKI-1 renal | CCRF-CEM leukemia | COLO 205 colon | DU-145 prostate | EKVX NSCLC | HCC-2998 colon | HCT-15 colon | HOP-62 NSCLC | HOP-92 NSCLC | HS 578T breast | IGROV1 ovarian | K-562 leukemia | KM12 colon | LOX IMVI melanoma | M14 melanoma | MALME-3M melanoma | MCF7 breast | MDA-MB-231 breast | MDA-MB-435 | MDA-N | MOLT-4 leukemia | NCI-H23 lung | NCI-H460 lung | NCI-H522 lung | OVCAR-3 ovarian | OVCAR-4 ovarian | PC-3 prostate | RPMI-8226 leukemia | SF-268 CNS | SF-295 CNS | SF-539 CNS | SK-MEL-2 melanoma | SK-MEL-28 melanoma | SK-MEL-5 melanoma | SK-OV-3 ovarian | SN12C renal | SNB-19 CNS | SNB-75 CNS | SR leukemia | SW-620 colon | T-47D breast | TK-10 renal | U251 CNS | UACC-257 melanoma | UACC-62 melanoma | UO-31 renal

COc1cc2c(cc1O)NC(=S)[C@@H]1CCCN1C2=O
> 100 µM: 786-0 renal | A498 renal | A549 NSCLC | ACHN renal | BT-549 breast | CAKI-1 renal | CCRF-CEM leukemia | COLO 205 colon | DU-145 prostate | EKVX NSCLC | HCC-2998 colon | HCT-116 colon | HCT-15 colon | HOP-62 NSCLC | HOP-92 NSCLC | HS 578T breast | HT29 colon | IGROV1 ovarian | K-562 leukemia | KM12 colon | LOX IMVI melanoma | M14 melanoma | MALME-3M melanoma | MCF7 breast | MDA-MB-231 breast | MDA-MB-435 | MDA-N | MOLT-4 leukemia | NCI-H226 lung | NCI-H23 lung | NCI-H460 lung | NCI-H522 lung | NCI/ADR-RES ovarian | OVCAR-3 ovarian | OVCAR-4 ovarian | OVCAR-5 ovarian | OVCAR-8 ovarian | PC-3 prostate | RPMI-8226 leukemia | RXF 393 renal | SF-268 CNS | SF-295 CNS | SF-539 CNS | SK-MEL-2 melanoma | SK-MEL-28 melanoma | SK-MEL-5 melanoma | SK-OV-3 ovarian | SN12C renal | SNB-19 CNS | SNB-75 CNS | SR leukemia | SW-620 colon | T-47D breast | TK-10 renal | U251 CNS | UACC-257 melanoma | UACC-62 melanoma | UO-31 renal
